ChEMBL document CHEMBL1201862, “PubChem BioAssay data set” (2004)
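Grown in 96-well plates, cells were treated for 48 hours with each compound at five concentrations. Insufficient inhibition: endpoint recorded as highest concentration tested. Here, GI50 denotes the concentration required for 50% inhibition of growth.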 Calls of active or inactive are those of the source. Rule as the data show it: active = GI50 up to about 1.1 µM and inactive = higher.

Key:
Assay in all cases: inhibition of tumour cell growth, NCI panel, 48 h
MDA-MB-435 = test system: MDA-MB-435
KM12 = test system: KM12
A498 = test system: A498
NCI-H522 = test system: NCI-H522
SK-MEL-2 = test system: SK-MEL-2
SN12C = test system: SN12C
CAKI-1 = test system: CAKI-1
UACC-257 = test system: UACC-257
NCI-H226 = test system: NCI-H226
U-251 = test system: U-251
Hs-578T = test system: Hs-578T
DU-145 = test system: DU-145
MDA-MB-231 = test system: MDA-MB-231
786-0 = test system: 786-0
SNB-19 = test system: SNB-19
SW-620 = test system: SW-620
OVCAR-3 = test system: OVCAR-3
SF-539 = test system: SF-539
MCF7 = test system: MCF7
HOP-62 = test system: HOP-62

Measured: GI50

C[C@@H](c1ccccc1)n1c(N)c(-c2ccccn2)c2ccc([N+](=O)[O-])cc2c1=O
inactive: MDA-MB-435 92.7 µM | KM12 67.9 µM | A498 18.5 µM | NCI-H522 48.2 µM | SK-MEL-2 > 100 µM | SN12C 98.2 µM | CAKI-1 51.8 µM | UACC-257 22.2 µM | NCI-H226 36.6 µM | U-251 47.5 µM | Hs-578T 26.9 µM | DU-145 31.8 µM | MDA-MB-231 86.3 µM | 786-0 > 100 µM | SNB-19 35.2 µM | SW-620 > 100 µM

COc1ccc2c(=O)c(-c3cc4c(cc3OC)OCO4)coc2c1
inactive: KM12 > 100 µM | A498 > 100 µM | NCI-H522 > 100 µM | OVCAR-3 > 100 µM | SK-MEL-2 > 100 µM | SN12C > 100 µM | CAKI-1 51.8 µM | SF-539 > 100 µM | UACC-257 > 100 µM | NCI-H226 > 100 µM | U-251 59.2 µM | MCF7 97.3 µM | Hs-578T > 100 µM | DU-145 > 100 µM | MDA-MB-231 61.5 µM | 786-0 60.1 µM | HOP-62 41.9 µM | SNB-19 52 µM | SW-620 > 100 µM

SC1=NNC2(C(Cl)=N1)c1ccccc1-c1ccccc12
inactive: KM12 > 10 µM | A498 > 10 µM | SN12C > 10 µM | CAKI-1 > 10 µM | SF-539 > 10 µM | UACC-257 > 10 µM | NCI-H226 > 10 µM | U-251 > 10 µM | MCF7 > 10 µM | Hs-578T > 10 µM | DU-145 > 10 µM | MDA-MB-231 > 10 µM | 786-0 > 10 µM | HOP-62 > 10 µM | SW-620 > 10 µM

O=C(O)C1SCCS1
inactive: MDA-MB-435 > 100 µM | A498 > 100 µM | OVCAR-3 > 100 µM | SN12C > 100 µM | UACC-257 > 100 µM | NCI-H226 > 100 µM | U-251 > 100 µM | MCF7 > 100 µM | DU-145 > 100 µM | MDA-MB-231 > 100 µM | 786-0 > 100 µM | HOP-62 > 100 µM | SNB-19 > 100 µM | SW-620 > 100 µM

C[C@]12CC[C@H]3[C@@H](CCC4=C/C(=N/OCCN5CCCCC5)CC[C@@]43C)[C@@H]1CC[C@@H]2O
inactive: MDA-MB-435 7.66 µM | KM12 10.2 µM | NCI-H522 12.2 µM | OVCAR-3 16.3 µM | SK-MEL-2 14.6 µM | SN12C 17.4 µM | CAKI-1 28.8 µM | UACC-257 17.2 µM | NCI-H226 4.29 µM | U-251 13.3 µM | MCF7 12 µM | DU-145 21.9 µM | MDA-MB-231 22.2 µM | 786-0 19.3 µM | HOP-62 14.1 µM | SNB-19 5.68 µM | SW-620 13.9 µM

C[n+]1c2n(c3nc(N)[nH]c(=O)c31)C1OC(C2)C(O)C1O (stereo unspecified)
inactive: KM12 > 100 µM | A498 > 100 µM | NCI-H522 > 100 µM | OVCAR-3 > 100 µM | SK-MEL-2 > 100 µM | SN12C > 100 µM | CAKI-1 > 100 µM | SF-539 > 100 µM | UACC-257 > 100 µM | NCI-H226 > 100 µM | U-251 > 100 µM | 786-0 > 100 µM | HOP-62 > 100 µM | SNB-19 > 100 µM | SW-620 > 100 µM
